# Results taken from patent publication US11351264B2, “PAR2 mimetic peptides and uses thereof” (ARIZONA BOARD OF REGENTS ON BEHALF OF THE UNIVERSITY OF …, priority 2016, dated 2022).
# Primed or numbered codes have the meaning given here. *: point of attachment. 2at = 2-aminothiazol-4-yl N-terminal cap, Nc1nc(*)cs1; Hdc = hexadecyl (lipid tether group); PEG3′ = not defined here
# Tests used:
# Assay type in all cases: cell-based
# [1] = molecular target: T1, PAR2 (Homo sapiens, UniProt P55085); test: RTCA screen (xCELLigence in vitro physiological signalling assay)
# T1 sequence (P55085 26-397): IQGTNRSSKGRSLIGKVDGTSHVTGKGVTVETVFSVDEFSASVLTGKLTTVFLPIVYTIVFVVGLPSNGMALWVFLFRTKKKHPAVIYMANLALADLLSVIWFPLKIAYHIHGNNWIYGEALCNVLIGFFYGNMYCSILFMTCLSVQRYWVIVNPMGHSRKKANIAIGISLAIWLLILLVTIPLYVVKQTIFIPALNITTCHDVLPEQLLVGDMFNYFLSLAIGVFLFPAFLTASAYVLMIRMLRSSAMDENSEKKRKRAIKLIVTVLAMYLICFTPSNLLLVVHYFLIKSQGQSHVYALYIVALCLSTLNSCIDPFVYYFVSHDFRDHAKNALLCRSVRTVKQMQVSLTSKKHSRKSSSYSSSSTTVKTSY
# From the text: FIGS. 5A-B show in vitro physiological PAR2 agonist screening using xCELLigence. […] This compound was a biased-signalling antagonist in that it had no effect on mitogen activated protein kinase (MAPK) signalling, the other major signalling pathway activated via PAR2. […] Thus, experiments screened a series of potential PAR2 ligands with a heterocycle serine substitute followed by four amino acids (XXGR) and the PEG3-Hdc lipid tether. […], C595 and […] are novel pharmacological tools that can be used to evaluate the physiological consequences of PAR2 full and biased ligand signalling.
# [2] = molecular target: T1, PAR2; test: PAR2 Ca2+ signalling in cultured human bronchial epithelial cells (16HBE14o-); design: endogenous in cells; host or cells: 16HBE14o- human bronchial epithelial cells; settings: for Block of PAR2 Ca2+ signalling elicited via protease activation: Alternaria alternata filtrates; for Block of PAR2 Ca2+ signalling elicited via protease activation / Block of PAR2 Ca2+ signalling elicited via peptidomimetics: 16HBE14o- cells, C608 at nanomolar concentrations; for Block of PAR2 Ca2+ signalling elicited via peptidomimetics: activation by 2-at-LIGRL-NH2
# From the text: (§1) This compound was a biased-signalling antagonist in that it had no effect on mitogen activated protein kinase (MAPK) signalling, the other major signalling pathway activated via PAR2. […] C595 is closely related to the previously described potent and specific PAR2 agonist, 2-at-LIGR (SEQ ID NO: 1)-PEG3-Hdc. Thus, experiments screened a series of potential PAR2 ligands with a heterocycle serine substitute followed by four amino acids (XXGR) and the PEG3-Hdc lipid tether. […] C562, C595 and C608 are novel pharmacological tools that can be used to evaluate the physiological consequences of PAR2 full and biased ligand signalling.
# [3] = molecular target: T1, PAR2; test: Mitogen activated protein kinase (MAPK) signalling activated via PAR2; settings: for Effect on MAPK signalling (as antagonist): C608 at nanomolar concentrations
# From the text: as §1
substance,measurement,setting,value
2at-4thiazolamine-IGR-PEG3-Hdc [Compound 23],Compound Summary as Determined by RTCA Screen,[1],No Activity at PAR2 Detected
2at-(dL)IGR-PEG3-Hdc [Compound 24],Compound Summary as Determined by RTCA Screen,[1],No Activity at PAR2 Detected
2at-(dT)IGR-PEG3-Hdc [Compound 26],Compound Summary as Determined by RTCA Screen,[1],No Activity at PAR2 Detected
2at-(dl)IGR-PEG3-Hdc [Compound 25],Compound Summary as Determined by RTCA Screen,[1],No Activity at PAR2 Detected
2at-DIGR-PEG3-Hdc [Compound 15],Compound Summary as Determined by RTCA Screen,[1],No Activity at PAR2 Detected
2at-HIGR-PEG3-Hdc [Compound 16],Compound Summary as Determined by RTCA Screen,[1],PAR2 Agonist
2at-LIGR-PEG3-Hdc [Compound 12],Compound Summary as Determined by RTCA Screen,[1],Full PAR2 Agonist
2at-LKGR-PEG3-Hdc [Compound 11],Compound Summary as Determined by RTCA Screen,[1],Full PAR2 Agonist
2at-SHGR-PEG3-Hdc [Compound 8],Compound Summary as Determined by RTCA Screen,[1],No Activity at PAR2 Detected
2at-SIGR-PEG3-Hdc [Compound 13],Compound Summary as Determined by RTCA Screen,[1],No Activity at PAR2 Detected
2at-SKGR-PEG3-Hdc (2at-SKGR-{PEG3′-Hdc}) [Compound 6],Antagonistic activity against peptidomimetic activation,[1]; xCELLigence in vitro physiological signalling assay,maintained antagonistic activity
2at-SKGRS-PEG3-Hdc (2at-SKGRS-{PEG3′-Hdc}) [Compound 5],Block of PAR2 Ca2+ signalling elicited via protease activation,[2],blocks PAR2 Ca^2+ signalling
same,Block of PAR2 Ca2+ signalling elicited via peptidomimetics,[2],blocks PAR2 Ca^2+ signalling
same,Effect on MAPK signalling (as antagonist),[3],no effect
same,Compound Summary as Determined by RTCA Screen,[1],PAR2 Antagonist
2at-SRGR-PEG3-Hdc [Compound 7],Compound Summary as Determined by RTCA Screen,[1],No Activity at PAR2 Detected
2at-TIGR-PEG3-Hdc (2at-TIGR-{PEG3′-Hdc}) [Compound 14],Ca2+ signalling profile (agonist/antagonist),[2],Partial Ca^2+ signalling agonist and potent antagonist (low concentrations)
same,Block of PAR2 Ca2+ signalling elicited via protease activation,[2],blocked PAR2-dependent Ca^2+ signalling
same,Block of PAR2 Ca2+ signalling elicited via peptidomimetics,[2],blocked PAR2-dependent Ca^2+ signalling
same,MAPK pathway profile (agonist/antagonist),[3],Full MAPK agonist
same,Effect on MAPK signalling (as antagonist),[3],without effects on MAPK signalling
same,Compound Summary as Determined by RTCA Screen,[1],PAR2 Agonist and Antagonist
same,RTCA signalling profile (agonist/antagonist),[1]; listed as C608,Partial RTCA agonist and potent anatagonist (low concentrations)
2at-TKGR-PEG3-Hdc [Compound 10],Compound Summary as Determined by RTCA Screen,[1],No Activity at PAR2 Detected
2at-VIGR-PEG3-Hdc [Compound 17],Compound Summary as Determined by RTCA Screen,[1],PAR2 Agonist
2at-homoserine-IGR-PEG3-Hdc [Compound 21],Compound Summary as Determined by RTCA Screen,[1],PAR2 Agonist
2at-hydroxyproline-IGR-PEG3-Hdc [Compound 20],Compound Summary as Determined by RTCA Screen,[1],No Activity at PAR2 Detected
2at-penicillamine-IGR-PEG3-Hdc [Compound 22],Compound Summary as Determined by RTCA Screen,[1],No Activity at PAR2 Detected
